Experimental data from ChEMBL document CHEMBL1201862, “PubChem BioAssay data set” (2004).
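Each compound was tested at five concentrations against cells in 96-well plates for 48 hours. At the GI50, growth is halved.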 Calls of active or inactive are those of the source. Cut-off read from the data, not from the text of the source: active = GI50 up to about 1.1 µM and inactive = higher.

Legend:
Assay in all cases: DTP human tumour cell line panel, 48 h
[1] = test system: 786-0
[2] = test system: A498
[3] = test system: A549
[4] = test system: ACHN
[5] = test system: CAKI-1
[6] = test system: CCRF-CEM
[7] = test system: COLO 205
[8] = test system: DLD-1
[9] = test system: DMS-114
[10] = test system: DMS-273
[11] = test system: EKVX
[12] = test system: HCC 2998
[13] = test system: HCT-116
[14] = test system: HCT-15
[15] = test system: HL-60
[16] = test system: HOP-62
[17] = test system: HT-29
[18] = test system: IGROV-1
[19] = test system: K562
[20] = test system: KM12
[21] = test system: LOX IMVI
[22] = test system: LXFL 529
[23] = test system: M14
[24] = test system: MOLT-4
[25] = test system: Malme-3M
[26] = test system: NCI-H226
[27] = test system: NCI-H23
[28] = test system: NCI-H460
[29] = test system: NCI-H522
[30] = test system: OVCAR-3
[31] = test system: OVCAR-4
[32] = test system: OVCAR-5
[33] = test system: OVCAR-8
[34] = test system: RPMI-8226
[35] = test system: SF-268
[36] = test system: SF-295
[37] = test system: SF-539
[38] = test system: SK-MEL-28
[39] = test system: SK-MEL-2
[40] = test system: SK-MEL-5
[41] = test system: SK-OV-3
[42] = test system: SN12C
[43] = test system: SNB-19
[44] = test system: SNB-75
[45] = test system: SR
[46] = test system: SW-620
[47] = test system: TK-10
[48] = test system: U-251
[49] = test system: UACC-257
[50] = test system: UACC-62
[51] = test system: UO-31
[52] = test system: HOP-92
[53] = test system: RXF 393
[54] = test system: SNB-78

Compound: CCOC(=O)C(NC(=O)c1ccc(/N=N/N(C)C)cc1)C(C)C (stereo not drawn)
- GI50 [1]: > 100 µM (inactive)
- GI50 [2]: > 100 µM (inactive)
- GI50 [3]: > 100 µM (inactive)
- GI50 [4]: > 100 µM (inactive)
- GI50 [5]: > 100 µM (inactive)
- GI50 [6]: > 100 µM (inactive)
- GI50 [7]: > 100 µM (inactive)
- GI50 [8]: > 100 µM (inactive)
- GI50 [9]: > 100 µM (inactive)
- GI50 [10]: > 100 µM (inactive)
- GI50 [11]: > 100 µM (inactive)
- GI50 [12]: > 100 µM (inactive)
- GI50 [13]: > 100 µM (inactive)
- GI50 [14]: > 100 µM
- GI50 [15]: > 100 µM (inactive)
- GI50 [16]: > 100 µM (inactive)
- GI50 [17]: > 100 µM (inactive)
- GI50 [18]: > 100 µM (inactive)
- GI50 [19]: > 100 µM (inactive)
- GI50 [20]: > 100 µM (inactive)
- GI50 [21]: > 100 µM (inactive)
- GI50 [22]: > 100 µM (inactive)
- GI50 [23]: > 100 µM (inactive)
- GI50 [24]: > 100 µM (inactive)
- GI50 [25]: > 100 µM (inactive)
- GI50 [26]: > 100 µM (inactive)
- GI50 [27]: > 100 µM (inactive)
- GI50 [28]: > 100 µM (inactive)
- GI50 [29]: > 100 µM (inactive)
- GI50 [30]: > 100 µM (inactive)
- GI50 [31]: > 100 µM (inactive)
- GI50 [32]: > 100 µM (inactive)
- GI50 [33]: > 100 µM (inactive)
- GI50 [34]: > 100 µM (inactive)
- GI50 [35]: > 100 µM (inactive)
- GI50 [36]: > 100 µM (inactive)
- GI50 [37]: > 100 µM (inactive)
- GI50 [38]: > 100 µM (inactive)
- GI50 [39]: > 100 µM (inactive)
- GI50 [40]: > 100 µM (inactive)
- GI50 [41]: > 100 µM (inactive)
- GI50 [42]: > 100 µM (inactive)
- GI50 [43]: > 100 µM (inactive)
- GI50 [44]: > 100 µM (inactive)
- GI50 [45]: > 100 µM (inactive)
- GI50 [46]: > 100 µM (inactive)
- GI50 [47]: 54.2 µM (inactive)
- GI50 [48]: 31 µM (inactive)
- GI50 [49]: > 100 µM (inactive)
- GI50 [50]: > 100 µM (inactive)
- GI50 [51]: > 100 µM (inactive)

Compound: C/N=C(/NC)N(C)c1nc(=[N+](C)C)ss1.[O-][Cl+3]([O-])([O-])[O-]
- GI50 [1]: > 100 µM (inactive)
- GI50 [2]: 39.4 µM (inactive)
- GI50 [3]: > 100 µM (inactive)
- GI50 [4]: > 100 µM (inactive)
- GI50 [5]: 16.3 µM (inactive)
- GI50 [6]: 61.9 µM (inactive)
- GI50 [10]: 36.2 µM (inactive)
- GI50 [11]: > 100 µM (inactive)
- GI50 [12]: > 100 µM (inactive)
- GI50 [13]: 62.1 µM (inactive)
- GI50 [14]: 92.7 µM
- GI50 [15]: 46 µM (inactive)
- GI50 [16]: > 100 µM (inactive)
- GI50 [52]: 75 µM (inactive)
- GI50 [17]: > 100 µM (inactive)
- GI50 [18]: > 100 µM (inactive)
- GI50 [19]: 31.2 µM (inactive)
- GI50 [20]: > 100 µM (inactive)
- GI50 [21]: 78.9 µM (inactive)
- GI50 [22]: > 100 µM (inactive)
- GI50 [23]: > 100 µM (inactive)
- GI50 [24]: 39.3 µM (inactive)
- GI50 [26]: 59.3 µM (inactive)
- GI50 [27]: 74.1 µM (inactive)
- GI50 [28]: > 100 µM (inactive)
- GI50 [29]: 56.4 µM (inactive)
- GI50 [30]: > 100 µM (inactive)
- GI50 [32]: > 100 µM (inactive)
- GI50 [33]: > 100 µM (inactive)
- GI50 [53]: > 100 µM (inactive)
- GI50 [35]: > 100 µM (inactive)
- GI50 [36]: > 100 µM (inactive)
- GI50 [37]: > 100 µM (inactive)
- GI50 [38]: > 100 µM (inactive)
- GI50 [39]: > 100 µM (inactive)
- GI50 [40]: > 100 µM (inactive)
- GI50 [41]: > 100 µM (inactive)
- GI50 [42]: > 100 µM (inactive)
- GI50 [43]: > 100 µM (inactive)
- GI50 [54]: 82.8 µM (inactive)
- GI50 [45]: 55.5 µM (inactive)
- GI50 [46]: > 100 µM (inactive)
- GI50 [47]: > 100 µM (inactive)
- GI50 [48]: > 100 µM (inactive)
- GI50 [49]: > 100 µM (inactive)
- GI50 [50]: > 100 µM (inactive)
- GI50 [51]: > 100 µM (inactive)
